Results published in patent US20020132809A1, “Heterocyclic carboxamide derivatives as inhibitors of nitric oxide production” (Fujisawa Pharmaceutical Co. Ltd., priority 1998, published 2002).

| melting point | Compound |
| --- | --- |
| 151 to 153 °C | COc1ccc2oc(N(C=O)[C@@H](Cc3ccccn3)c3ncc(-c4ccc(-n5ccnc5)cc4)n3C)cc2c1 [Example 51, (1S)-N-[1-[5-[4-(1-Imidazolyl)phenyl]-1-methylimidazol-2-yl]-2-(2-pyridyl)ethyl](5-methoxybenzo[b]furan-2-yl)formamide] |
| 207 to 208 °C | Cn1c(-c2ccc([N+](=O)[O-])cc2)cnc1[C@H](Cc1ccccn1)N(C=O)c1cc2cc(F)ccc2o1 [Example 63, (1S)-(5-Fluorobenzo[b]furan-2-yl)-N-[1-[1-methyl-5-(4-nitrophenyl)imidazol-2-yl]-2-(2-pyridyl)ethyl]formamide] |
| 135 to 140 °C | Cn1c(-c2ccc(-c3ccncc3)cc2)cnc1[C@H](Cc1ccccn1)N(C=O)c1cc2cc(Cl)ccc2o1 [Example 37, (1S)-(5-Chlorobenzo[b]furan-2-yl)-N-[1-[1-methyl-5-[4-(4-pyridyl)-phenyl]imidazol-2-yl]-2-(2-pyridyl)ethyl]formamide] |
| 233 to 237 °C | Cn1c(-c2ccc(-n3cnc4ccccc43)cc2)cnc1[C@H](Cc1ccccn1)N(C=O)c1cc2ccccc2[nH]1 [Example 31, (1S)-N-[1-[5-[4-(1-Benzimidazolyl)phenyl]-1-methylimidazol-2-yl]-2-(2-pyridyl)ethyl](indol-2-yl)formamide] |
| 158 to 160 °C | Cn1c(-c2ccc(-c3cccnc3)cc2)cnc1[C@H](Cc1ccccn1)N(C=O)c1cc2cc(Cl)ccc2o1 [Example 34, (1S)-(5-Chlorobenzo[b]furan-2-yl)-N-[1-[1-methyl-5-[4-(3-pyridyl)-phenyl]imidazol-2-yl]-2-(2-pyridyl)ethyl]formamide] |
| 159 to 161 °C | Cc1nccn1-c1ccc(-c2cnc([C@H](Cc3ccccn3)N(C=O)c3cc4cc(Cl)ccc4o3)n2C)cc1 [Example 70, (1S)-(5-Chlorobenzo[b]furan-2-yl)-N-[1[-1-methyl-5-[4-(2-methylimidazol-1-yl)phenyl]imidazol-2-yl]-2-(2-pyridyl)ethyl]formamide] |
| 238 to 240 °C (dec.) | CCCn1c(-c2ccc(-n3ccnc3)cc2)cnc1[C@H](Cc1ccncc1)n1c(NC=O)cc2ccccc21 [Example 52, (1S)-N-[1-[5-[4-(1-Imidazolyl)phenyl]-1-propylimidazol-2-yl]-2-(4-pyridyl)ethyl](indol-2-yl) formamide] |
| 165 to 167 °C | Cn1c(-c2ccc(-c3cncs3)cc2)cnc1[C@H](Cc1ccccn1)N(C=O)c1cc2cc(Cl)ccc2o1 [Example 38, (1S)-(5-Chlorobenzo[b]furan-2-yl)-N-[1-[1-methyl-5-[4-(5-thiazolyl)phenyl]imidazol-2-yl]-2-(2-pyridyl)ethyl]formamide] |
| 93 to 99 °C | CCCn1c(-c2ccc(-n3ccnc3)cc2)cnc1[C@H](Cc1ccccn1)N(C=O)c1cc2cc(Br)ccc2o1 [Example 44, (1S)-(5-Bromobenzo[b]furan-2-yl)-N-[1-[5-[4-(1-imidazolyl)phenyl]-1-propylimidazol-2-yl]-2-(2-pyridyl)ethyl]formamide] |
| 152 to 155 °C | Cn1c(-c2ccc(-n3cnc4ccccc43)cc2)cnc1[C@H](Cc1ccccn1)N(C=O)c1cc2ccccc2o1 [Example 32, (1S)-N-[1-[5-[4-(1-Benzimidazolyl)phenyl]-1-methylimidazol-2-yl]-2-(2-pyridyl)ethyl](benzo[b]furan-2-yl)formamide] |
| 192 to 194 °C | Cn1c(-c2ccc([N+](=O)[O-])cc2)cnc1[C@H](Cc1ccccn1)N(C=O)c1cc2cc(C(F)(F)F)ccc2o1 [Example 39, (1S)-N-[1-[1-Methyl-5-(4-nitrophenyl)imidazol-2-yl]-2-(2-pyridyl)-ethyl][5-(trifluoromethyl)benzo[b]furan-2-yl]formamide] |

More lines, now with the values behind:

| Compound | melting point |
| --- | --- |
| Cn1c(-c2ccc(-n3ccnc3)cc2)cnc1[C@H](Cc1ccccn1)N(C=O)c1cc2cccnc2o1 [Example 27, (1S)-(Furo[2,3-b]pyridin-2-yl)-N-[1-[5-[4-(1-imidazolyl)phenyl]-1-methylimidazol-2-yl]-2-(2-pyridyl)ethyl]formamide] | 108 to 110 °C |
| Cn1c(-c2ccc(-c3ccco3)cc2)cnc1[C@H](Cc1ccccn1)N(C=O)c1cc2cc(Cl)ccc2o1 [Example 16, (1S)-(5-Chlorobenzo[b]furan-2-yl)-N-[1-[5-[4-(2-furyl)phenyl]-1-methylimidazol-2-yl]-2-(2-pyridyl)ethyl]formamide] | 144 to 146 °C |
| Cn1c(-c2ccc(-n3ccnc3)cc2)cnc1[C@H](Cc1ccccn1)N(C=O)c1cc2ccc(Cl)cc2o1 [Example 11, (1S)-(6-Chlorobenzo[b]furan-2-yl)-N-[1-[5-[4-(1-imidazolyl)-phenyl]-1-methylimidazol-2-yl]-2-(2-pyridyl)ethyl]formamide] | 165 to 169 °C |
| Cc1ccc2oc(N(C=O)[C@@H](Cc3ccccn3)c3ncc(-c4ccc(N5CCOCC5)cc4)n3C)cc2c1 [Example 5, (1S)-(5-Methylbenzo[b]furan-2-yl)-N-[1-[1-methyl-5-(4-morpholinophenyl)imidazol-2-yl]-2-(2-pyridyl)ethyl]formamide] | 125 to 127 °C |
| CCn1c(-c2ccc(-n3ccnc3)cc2)cnc1[C@H](Cc1ccccn1)N(C=O)c1cc2cc(C(F)(F)F)ccc2o1 [Example 29, (1S)-N-[1-[1-Ethyl-5-[4-(1-imidazolyl)phenyl]imidazol-2-yl]-2-(2-pyridyl)ethyl][5-(trifluoromethyl)benzo[b]furan-2-yl]formamide] | 85 to 89 °C |
| CCn1c(-c2ccc(-n3ccnc3)cc2)cnc1[C@H](Cc1ccccn1)N(C=O)c1cc2cc(Cl)ccc2o1.Cl.Cl.Cl | 198 to 203 °C |
| Cn1c(-c2ccc(-c3nccs3)cc2)cnc1[C@H](Cc1ccccn1)N(C=O)c1cc2cc(Cl)ccc2o1 [Example 18, (1S)-(5-Chlorobenzo[b]furan-2-yl)-N-[1-[1-methyl-5-[4-(2-thiazolyl)phenyl]imidazol-2-yl]-2-(2-pyridyl)ethyl]formamide] | 144 to 146 °C |
| Cn1ccnc1-c1ccc(-c2cnc([C@H](Cc3ccccn3)N(C=O)c3cc4ccccc4[nH]3)n2C)cc1 [Example 22, (1S)-(Indol-2-yl)-N-[1-[5-[4-(1-methylimidazol-2-yl)phenyl]-1-methylimidazol-2-yl]-2-(2-pyridyl)ethyl]formamide] | 218 to 222 °C |
| Cn1c(-c2ccc(-n3ccnc3)cc2)cnc1[C@H](Cc1ccccn1)N(C=O)c1cc2cc(C#N)ccc2o1 [Example 25, (1S)-(5-Cyanobenzo[b]furan-2-yl)-N-[1-[5-[4-(1-imidazolyl)-phenyl]-1-methylimidazol-2-yl]-2-(2-pyridyl)ethyl]formamide] | 174 to 176 °C |
| Cn1c(-c2ccc(-c3cccs3)cc2)cnc1[C@H](Cc1ccccn1)N(C=O)c1cc2cc(Cl)ccc2o1 [Example 17, (1S)-(5-Chlorobenzo[b]furan-2-yl)-N-[1-[1-methyl-5-[4-(2-thienyl)-phenyl]imidazol-2-yl]-2-(2-pyridyl)ethyl]formamide] | 110 to 114 °C |
| Cn1c(-c2ccc(-n3ccnc3)cc2)cnc1[C@H](Cc1ccccn1)N(C=O)c1cc2cc([N+](=O)[O-])ccc2s1 [Compound (d), (1S)-N-[1-[5-[4-(1-imidazolyl)phenyl]-1-methylimidazol-2-yl]-2-(2-pyridyl)ethyl](5-nitrobenzo[b]thiophen-2-yl)formamide] | 228 to 231 °C |
